Legend:
[1] = system: Green Peach Aphid (Myzus persicae) (MYZUPE); assay: Bioassay on Green Peach Aphid (GPA), foliar spray on infested cabbage seedlings; type: in vivo; settings: 72 h, 200 ppm foliar spray on cabbage, live aphids counted after three days, read-out: MYZUPE rating (% Mortality; Abbott corrected % control)
Procedure: Example A Bioassays on Green Peach Aphid (“GPA”) (Myzus persicae) (MYZUPE.)
Several molecules disclosed herein were tested against GPA using procedures described below.
Cabbage seedling grown in 3-in pots, with 2-3 small (3-5 cm) true leaves, were used as test substrate. The seedlings were infested with […] (wingless adult and nymph stages) one day prior to chemical application. Four pots with individual seedlings were used for each treatment. Test compounds (2 mg) were dissolved in 2 mL of acetone/MeOH (1:1) solvent, forming stock solutions of 1000 ppm test compound. The stock solutions were diluted 5× with 0.025% Tween 20 in water to obtain the solution at 200 ppm test compound. A hand-held aspirator-type sprayer was used for spraying a solution to both sides of the cabbage leaves until runoff. Reference plants (solvent check) were sprayed with the diluent only containing […] acetone/MeOH (1:1) solvent. Treated plants were held in a holding room for three days at approximately 25° C. and ambient relative humidity (RH) prior to grading. Evaluation was conducted by counting the number of live aphids per plant under a microscope. Percent Control was measured by using Abbott's correction formula (W. S. Abbott, “A Method of Computing the Effectiveness of an Insecticide” J. Econ. Entomol 18 (1925), pp. 265-267) as follows. Corrected % Control=100*(X−Y)/X […]

[2] = system: Sweetpotato Whitefly Crawler (Bemisia tabaci) (BEMITA); assay: Bioassay on Sweetpotato Whitefly Crawler, foliar spray on infested cotton plants; type: in vivo; settings: 200 ppm foliar spray on cotton, live nymphs counted after 8-9 days, read-out: BEMITA rating (% Mortality; Abbott corrected % control)
Text: Example B Bioassays on Sweetpotato Whitefly Crawler (Bemisia tabaci) (BEMITA.)
Cotton plants grown in 3-inch pots, with 1 small (3-5 cm) true leaf, were used at test substrate. The plants were placed in a room with whitely adults. Adults were allowed to deposit eggs for 2-3 days. After a 2-3 day egg-laying period, plants were taken from the adult whitefly room. Adults were blown off leaves using a hand-held Devilbliss sprayer (23 psi). Plants with egg infestation (100-300 eggs per plant) were placed in a holding room for 5-6 days at 82° F. and 50% RH for egg hatch and crawler stage to develop. Four cotton plants were used for each treatment. Compounds (2 mg) were dissolved in 1 mL of acetone solvent, forming stock solutions of 2000 ppm. The stock solutions were diluted 10× with 0.025% Tween 20 in water to obtain a test solution at 200 ppm. A hand-held Devilbliss sprayer was used for spraying a solution to both sides of cotton leaf until runoff. Reference plants (solvent check) were sprayed with the diluent only. Treated plants were held in a holding room for 8-9 days at approximately 82° F. and 50% RH prior to grading. Evaluation was conducted by counting the number of live nymphs per plant under a microscope.

Row | SMILES | mortality at 200 ppm [1] [%] | mortality at 200 ppm [2] [%]
1 | CCOC(=O)C1CC(=O)NN1c1cccnc1 (stereo not shown) [Example Compound 10a, Ethyl 5-oxo-2-(pyridin-3-yl)pyrazolidine-3-carboxylate] | 0 to 80 | 0 to 80
2 | CCOC(=O)C1CC(Cl)=NN1c1cccnc1 (stereo not shown) [Example Compound 10b, Ethyl 3-chloro-1-(pyridin-3-yl)-4,5-dihydro-1H-pyrazole-5-carboxylate] | 0 to 80 | 0 to 80
